Test results: ChEMBL document CHEMBL4342498, “Design and Discovery of an Orally Efficacious Spiroindolinone-Based Tankyrase Inhibitor for the Treatment of Colon Cancer” (J Med Chem, 2020)
pIC50: −log10 of the molar value. ≈ marks a conversion by molar mass, not a printed value.

Experiments:
[1] = Half life in ICR mouse at 50 mg/kg, po; assay type: ADME, organism-based; details: in vivo
[2] = physchem; details: phosphate buffered saline, pH 7.4
[3] = Cmax in ICR mouse at 50 mg/kg, ip; assay type: ADME, organism-based; set-up: dose 50 mg/kg, route intraperitoneal; details: in vivo
[4] = Stability in mouse liver microsomes assessed as parent compound remaining at 1 uM measured after 30 mins in presence of NADPH by LC-MS/MS analysis; assay type: ADME, Microsome; details: read-out: Stability
[5] = Protein binding in human plasma assessed as unbound fraction at 1 uM measured after 24 hrs by LC-MS/MS analysis; assay type: ADME, cell-free
[6] = target: T1, Poly [ADP-ribose] polymerase tankyrase-1 (Homo sapiens, UniProt O95271)
T1 sequence (O95271 whole entry): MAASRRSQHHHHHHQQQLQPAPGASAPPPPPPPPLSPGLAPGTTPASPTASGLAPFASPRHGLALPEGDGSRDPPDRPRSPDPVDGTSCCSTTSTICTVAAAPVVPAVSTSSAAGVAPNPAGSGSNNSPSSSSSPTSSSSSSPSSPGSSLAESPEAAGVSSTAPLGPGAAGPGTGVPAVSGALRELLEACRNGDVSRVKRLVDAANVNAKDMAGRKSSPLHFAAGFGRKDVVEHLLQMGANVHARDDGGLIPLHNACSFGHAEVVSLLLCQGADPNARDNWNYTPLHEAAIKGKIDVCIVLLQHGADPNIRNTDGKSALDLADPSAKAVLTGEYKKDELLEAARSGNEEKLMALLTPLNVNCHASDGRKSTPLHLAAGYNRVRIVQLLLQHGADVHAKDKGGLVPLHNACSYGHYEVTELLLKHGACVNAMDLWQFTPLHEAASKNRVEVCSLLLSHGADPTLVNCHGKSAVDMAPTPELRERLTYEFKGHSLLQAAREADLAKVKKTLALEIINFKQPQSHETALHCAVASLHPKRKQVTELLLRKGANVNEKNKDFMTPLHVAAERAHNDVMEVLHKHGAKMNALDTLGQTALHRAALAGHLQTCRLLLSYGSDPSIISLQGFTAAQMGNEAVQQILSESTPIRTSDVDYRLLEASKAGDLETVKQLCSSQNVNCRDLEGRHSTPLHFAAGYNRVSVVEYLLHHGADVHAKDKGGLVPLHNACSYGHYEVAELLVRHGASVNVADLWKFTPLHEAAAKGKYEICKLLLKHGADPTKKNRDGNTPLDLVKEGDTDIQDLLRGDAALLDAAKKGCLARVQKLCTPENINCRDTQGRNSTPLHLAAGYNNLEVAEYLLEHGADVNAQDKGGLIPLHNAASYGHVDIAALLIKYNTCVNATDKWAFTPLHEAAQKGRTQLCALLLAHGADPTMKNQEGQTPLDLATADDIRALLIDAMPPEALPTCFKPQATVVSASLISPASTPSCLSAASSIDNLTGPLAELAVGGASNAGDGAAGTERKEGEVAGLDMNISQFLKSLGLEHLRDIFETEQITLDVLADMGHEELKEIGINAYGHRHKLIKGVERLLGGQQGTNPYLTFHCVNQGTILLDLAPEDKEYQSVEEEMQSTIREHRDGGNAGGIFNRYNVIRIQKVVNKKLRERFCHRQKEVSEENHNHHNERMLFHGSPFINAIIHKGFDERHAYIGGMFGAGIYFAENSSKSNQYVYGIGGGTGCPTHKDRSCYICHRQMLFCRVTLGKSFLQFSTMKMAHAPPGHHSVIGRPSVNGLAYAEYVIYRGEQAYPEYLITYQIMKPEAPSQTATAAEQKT
Description: Inhibition of recombinant human N-terminal TEV cleavage site-fused/FLAG-poly his-tagged TNKS SAM-PARP domain (1024 to 1327 residues) expressed in Escherichia coli assessed as reduction in auto-PARylation preincubated for 10 mins followed by biotinylated-NAD+ addition and measured after 45 mins by ELISA

[7] = target: T2, Tankyrase 1/2 (Homo sapiens, UniProt Q9H2K2+O95271); details: hek293
T2 sequence (Q9H2K2 whole entry): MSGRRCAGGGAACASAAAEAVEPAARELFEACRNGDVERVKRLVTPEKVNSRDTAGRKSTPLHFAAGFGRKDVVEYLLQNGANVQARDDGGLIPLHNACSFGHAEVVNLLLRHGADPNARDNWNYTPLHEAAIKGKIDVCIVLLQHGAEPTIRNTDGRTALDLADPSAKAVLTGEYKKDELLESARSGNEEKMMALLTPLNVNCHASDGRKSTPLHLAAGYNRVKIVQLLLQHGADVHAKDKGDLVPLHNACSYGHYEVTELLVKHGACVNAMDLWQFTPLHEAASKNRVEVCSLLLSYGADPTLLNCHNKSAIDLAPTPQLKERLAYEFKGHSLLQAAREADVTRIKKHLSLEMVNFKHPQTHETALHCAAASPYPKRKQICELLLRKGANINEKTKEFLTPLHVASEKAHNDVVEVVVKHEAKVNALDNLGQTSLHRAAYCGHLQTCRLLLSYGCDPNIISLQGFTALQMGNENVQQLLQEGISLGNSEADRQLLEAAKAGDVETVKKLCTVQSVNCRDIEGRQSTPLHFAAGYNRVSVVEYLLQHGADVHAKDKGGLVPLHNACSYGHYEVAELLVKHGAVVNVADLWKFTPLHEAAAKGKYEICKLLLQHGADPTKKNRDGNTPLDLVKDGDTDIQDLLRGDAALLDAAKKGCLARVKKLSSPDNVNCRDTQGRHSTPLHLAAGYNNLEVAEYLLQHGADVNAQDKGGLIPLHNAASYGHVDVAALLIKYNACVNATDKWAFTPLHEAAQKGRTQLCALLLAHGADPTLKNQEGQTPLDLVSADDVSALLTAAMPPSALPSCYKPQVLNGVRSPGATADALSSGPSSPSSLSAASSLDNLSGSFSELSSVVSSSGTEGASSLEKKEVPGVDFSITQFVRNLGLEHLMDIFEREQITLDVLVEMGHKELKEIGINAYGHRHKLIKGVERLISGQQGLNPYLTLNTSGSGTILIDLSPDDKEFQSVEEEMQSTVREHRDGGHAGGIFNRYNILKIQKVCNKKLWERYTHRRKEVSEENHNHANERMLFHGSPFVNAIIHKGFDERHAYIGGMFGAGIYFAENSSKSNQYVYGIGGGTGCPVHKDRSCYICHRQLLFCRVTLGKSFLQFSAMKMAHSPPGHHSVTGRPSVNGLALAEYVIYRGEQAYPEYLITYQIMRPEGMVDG
T2 sequence (O95271 whole entry): T1 sequence (O95271 whole entry)
Description: Inhibition of TNKS/TNKS2 (unknown origin) expressed in HEK293 cells assessed as reduction in Wnt-signaling measured after 24 hrs by TCF-luciferase reporter gene assay

[8] = AUC (infinity) in ICR mouse at 50 mg/kg, po; assay type: ADME, organism-based; set-up: dose 50 mg/kg, time infinity, route oral; details: in vivo
[9] = Tmax in ICR mouse at 50 mg/kg, ip; assay type: ADME, organism-based; details: in vivo
[10] = Half life in ICR mouse at 50 mg/kg, ip; assay type: ADME, organism-based; details: in vivo
[11] = Cmax in ICR mouse at 50 mg/kg, po; assay type: ADME, organism-based; set-up: dose 50 mg/kg, route oral; details: in vivo
[12] = Stability in mouse liver microsomes assessed as parent compound remaining at 1 uM measured after 60 mins in presence of NADPH by LC-MS/MS analysis; assay type: ADME, Microsome; details: read-out: Stability
[13] = Stability in human liver microsomes assessed as parent compound remaining at 1 uM measured after 60 mins in presence of NADPH by LC-MS/MS analysis; assay type: ADME, Microsome; details: read-out: Stability
[14] = target: T2, Tankyrase 1/2
Description: Inhibition of TNKS/TNKS2 (unknown origin) expressed in human DLD1 cells assessed as reduction in Wnt-signaling measured after 24 hrs by TCF-luciferase reporter gene assay

CN1CCN(c2cc(F)c3c(c2)N(C)C(=O)C32CCN(c3nc4c(c(=O)[nH]3)CCCN4C)CC2)CC1
half-life [1]: 4 h
solubility at 1 h, 200 µM [2]: 94.5 µg/mL (≈ 191 µM)
Cmax [3]: 53.6 µM
remaining at 0.5 h, 1 µM [4]: 54.9%
fraction unbound at 24 h, 1 µM [5]: 0.004
pIC50 [6]: 8.11
IC50 [7]: 0.9 nM
AUC(0-inf) [8]: 77 µM·h
Tmax [9]: 0.5 h
half-life [10]: 2.5 h
Cmax [11]: 21.2 µM
remaining at 1 h, 1 µM [12]: 30.5 to 54.5%
remaining at 1 h, 1 µM [13]: 30.5 to 54.5%
IC50 [14]: 8.4 nM

C[C@@H]1CN(c2cc(F)c3c(c2)N(C)C(=O)C32CCN(c3nc4c(c(=O)[nH]3)CCCN4C)CC2)C[C@H](C)O1
half-life [1]: 1.8 h
solubility at 1 h, 200 µM [2]: 34.1 µg/mL (≈ 66.8 µM)
Cmax [3]: 102 µM
remaining at 0.5 h, 1 µM [4]: 49.7%
fraction unbound at 24 h, 1 µM [5]: 0.003
pIC50 [6]: 7.44
IC50 [7]: 0.3 nM
AUC(0-inf) [8]: 594 µM·h
Tmax [9]: 1 h
half-life [10]: 1.9 h
Cmax [11]: 121 µM
remaining at 1 h, 1 µM [12]: 28.7 to 55.9%
remaining at 1 h, 1 µM [13]: 28.7 to 55.9%
IC50 [14]: 3.1 nM
